From patent US11525008B2, “Methods and pharmaceutical compositions for the treatment of lung cancer” (INSERM (INSTITUT NATIONAL DE LA SANTÉ ET DE LA RECHERCHE …, priority 2016, dated 2022)

Key:
Type in all cases: cell-based
A549 cell line = experiment: matrigel modified Boyden chamber cell invasion assay after FHIT silencing; conditions: irbinitinib 10 nM; A549 cells transfected with FHIT siRNA; FIG. 3B
Source text: (§1) FIG. 3: Cell invasion induced by FHIT silencing is HER2-dependent.

HBE-4-E6/E7 cell line = experiment: as above; conditions: irbinitinib 10 nM; HBE-4-E6/E7 cells transfected with FHIT siRNA; FIG. 3A
Source text: as §1

A549 spheroids = experiment: collagen I gel invasion by spheroids, timelapse videomicroscopy, after FHIT silencing; conditions: irbinitinib 15 nM, FHIT siRNA, up to 72h, vs FHIT siRNA+DMSO p=0.0001, FIG. 4
Method: FIG. 4: Collagen I gel invasion by A549 spheroids induced by FHIT silencing is HER2-dependent. […] A. Representative phase-contrast images of spheroids at T0 and T=72h. B. Time course analysis of mean diameter of spheroids.** p<0.01; *** p<0.001.

For `Cc1cc(Nc2ncnc3ccc(NC4=NC(C)(C)CO4)cc23)ccc1Oc1ccn2ncnc2c1` [irbinitinib, N4-(4-([1,2,4]Triazolo[1,5-a]pyridin-7-yloxy)-3-methylphenyl)-N6-(4,4-dimethyl-4,5-dihydrooxazol-2-yl)quinazoline-4,6-diamine], the “cell invasion induced by FHIT silencing” value (A549 cell line) was “reduces cell invasion”, the “cell invasion induced by FHIT silencing” value (HBE-4-E6/E7 cell line) was “reduces cell invasion” and the “spheroid invasion (tumor cell dispersion into collagen I matrix, mean spheroid diameter) induced by FHIT silencing” value (A549 spheroids) was “reduces spheroid invasion”.
